Values after ≈ are worked out from the molar mass of the structure shown. Like-named read-outs stand apart in the source and are kept apart here.
Legend:
Assay in all cases: In vitro antibacterial activity, microtitration dilution method (MIC)
Format in all cases: cell-based
[1] = tested on: Escherichia coli Vogel; conditions: Escherichia coli Vogel, microtitration dilution; read-out: Minimal Inhibitory Concentration MIC
Excerpt: (§1) The compounds of the invention display antibacterial activity when tested by the microtitration dilution method as described in Heifetz, et al, Antimicr. Agents & Chemoth., 6, 124 (1974), which is incorporated herein by reference. By use of this method, the followed minimum inhibitory concentration values (MICs in μg/mL) were obtained for representative compounds of the invention.

[2] = tested on: Streptococcus pyogenes C-203; conditions: C203; Streptococcus pyogenes C-203, microtitration dilution; read-out: Minimal Inhibitory Concentration MIC
Excerpt: as §1

[3] = tested on: Staphylococcus aureus H 228; conditions: H228; Staphylococcus aureus H 228, microtitration dilution; read-out: Minimal Inhibitory Concentration MIC
Excerpt: as §1

[4] = tested on: Enterobacter cloacae MA 2646
Excerpt: as §1

[5] = tested on: Providencia rettgeri M 1771; conditions: M1771; Providencia rettgeri M 1771, microtitration dilution; read-out: Minimal Inhibitory Concentration MIC
Excerpt: as §1

[6] = tested on: Streptococcus pneumoniae SV-1; conditions: SV1; Streptococcus pneumoniae SV-1, microtitration dilution; read-out: Minimal Inhibitory Concentration MIC
Excerpt: (§2) Agents & Chemoth., 6, 124 (1974), which is incorporated herein by reference.

[7] = tested on: Pseudomonas aeruginosa UI-18
Excerpt: as §2

[8] = tested on: Staphylococcus aureus UC-76
Excerpt: as §2

[9] = tested on: Streptococcus faecalis MGH-2; conditions: Enterococcus faecalis, MGH2; Streptococcus faecalis MGH-2, microtitration dilution; read-out: Minimal Inhibitory Concentration MIC
Excerpt: as §2

[10] = tested on: Klebsiella pneumoniae MGH-2
Excerpt: as §2

[11] = tested on: Proteus rettgeri M 1771; conditions: Providencia rettgeri, M1771; Proteus rettgeri M 1771, microtitration dilution; read-out: Minimal Inhibitory Concentration MIC
Excerpt: as §2

[12] = Enterobacter cloacae, MA2646, read-out: Minimal Inhibitory Concentration MIC
[13] = UI18, Pseudomonas aeruginosa UI-18, microtitration dilution, read-out: Minimal Inhibitory Concentration MIC
[14] = UC76, Staphylococcus aureus UC-76, microtitration dilution, read-out: Minimal Inhibitory Concentration MIC
[15] = Klebsiella pneumoniae, MGH2, read-out: Minimal Inhibitory Concentration MIC
[16] = MA2646, Enterobacter cloacae MA 2646, microtitration dilution, read-out: Minimal Inhibitory Concentration MIC
[17] = MGH2, Klebsiella pneumoniae MGH-2, microtitration dilution, read-out: Minimal Inhibitory Concentration MIC

SMILES	MIC [1] [µg/mL]	MIC [2] [µg/mL]	MIC [3] [µg/mL]	MIC [4, 12] [µg/mL]	MIC [5] [µg/mL]	MIC [6] [µg/mL]	MIC [7, 13] [µg/mL]	MIC [8, 14] [µg/mL]	MIC [9] [µg/mL]	MIC [10, 15] [µg/mL]	MIC [4, 16] [µg/mL]	MIC ([7]; Pseudomonas aeruginosa, UI18, read-out: Minimal Inhibitory Concentration MIC) [µg/mL]	MIC [10, 17] [µg/mL]	MIC [11] [µg/mL]	MIC ([8]; Staphylococcus aureus, UC76, read-out: Minimal Inhibitory Concentration MIC) [µg/mL]
Cc1c(F)c(N2CCC(C)(CN)C2)c(F)c2c1c(=O)c(C(=O)O)cn2C1CC1 (centres unmarked) [Ex. 4, 7-[3-(Aminomethyl)-3-methyl-1-pyrrolidinyl]-1-cyclopropyl-6,8-difluoro-1,4-dihydro-5-methyl-4-oxo-3-quinolinecarboxylic acid]	0.05 (≈ 0.128 µM)	0.003 (≈ 0.00766 µM)	0.006 (≈ 0.0153 µM)	0.05 (≈ 0.128 µM)	0.2 (≈ 0.511 µM)	0.003 (≈ 0.00766 µM)	0.8 (≈ 2.04 µM)	0.003 (≈ 0.00766 µM)	0.025 (≈ 0.0639 µM)	0.1 (≈ 0.255 µM)	–	–	–	–	–
Cc1c(F)c(N2CCNC(C)C2)c(F)c2c1c(=O)c(C(=O)O)cn2C1CC1 (centres unmarked) [Ex. 5, 1-Cyclopropyl-6,8-difluoro-1,4-dihydro-5-methyl-7-[3-methyl-1-piperazinyl]-4-oxo-3-quinolinecarboxylic acid]	0.05 (≈ 0.132 µM)	0.006 (≈ 0.0159 µM)	0.025 (≈ 0.0662 µM)	–	0.1 (≈ 0.265 µM)	0.025 (≈ 0.0662 µM)	–	0.013 (≈ 0.0344 µM)	0.1 (≈ 0.265 µM)	–	0.025 (≈ 0.0662 µM)	0.4 (≈ 1.06 µM)	0.05 (≈ 0.132 µM)	–	–
Cc1c(F)c(N2CCNCC2)c(F)c2c1c(=O)c(C(=O)O)cn2C1CC1 [Ex. 1, 1-Cyclopropyl-6,8-difluoro-1,4-dihydro-5-methyl-4-oxo-7-(1-piperazinyl)-3-quinolinecarboxylic acid]	0.025 (≈ 0.0688 µM)	0.05 (≈ 0.138 µM)	0.025 (≈ 0.0688 µM)	–	0.05 (≈ 0.138 µM)	0.025 (≈ 0.0688 µM)	0.2 (≈ 0.55 µM)	0.025 (≈ 0.0688 µM)	0.05 (≈ 0.138 µM)	–	0.025 (≈ 0.0688 µM)	–	0.025 (≈ 0.0688 µM)	–	–
CCNCC1CCN(c2c(F)c(C)c3c(=O)c(C(=O)O)cn(C4CC4)c3c2F)C1 (centres unmarked) [Ex. 3, 1-Cyclopropyl-7-[3-[(ethylamino)methyl]-1-pyrrolidinyl]-6,8-difluoro-1,4-dihydro-5-methyl-4-oxo-3-quinolinecarboxylic acid]	0.05 (≈ 0.123 µM)	0.006 (≈ 0.0148 µM)	0.013 (≈ 0.0321 µM)	–	0.2 (≈ 0.493 µM)	0.003 (≈ 0.0074 µM)	0.8 (≈ 1.97 µM)	0.003 (≈ 0.0074 µM)	0.025 (≈ 0.0617 µM)	–	0.1 (≈ 0.247 µM)	–	0.1 (≈ 0.247 µM)	–	–
Cc1c(F)c(N2CCNCC2)cc2c1c(=O)c(C(=O)O)cn2C1CC1 [Ex. 6, 1-Cyclopropyl-6-fluoro-1,4-dihydro-5-methyl-4-oxo-7-(1-piperazinyl)-3-quinolinecarboxylic acid]	0.013 (≈ 0.0376 µM)	0.1 (≈ 0.29 µM)	0.1 (≈ 0.29 µM)	–	0.1 (≈ 0.29 µM)	0.05 (≈ 0.145 µM)	0.2 (≈ 0.579 µM)	0.025 (≈ 0.0724 µM)	0.05 (≈ 0.145 µM)	–	0.013 (≈ 0.0376 µM)	–	0.05 (≈ 0.145 µM)	–	–
Cc1c(F)c(N2CCNC(C)C2)cc2c1c(=O)c(C(=O)O)cn2-c1ccc(F)cc1F (centres unmarked) [Ex. 17a, 6-Fluoro-1-(2,4-difluorophenyl)-1,4-dihydro-5-methyl-7-(3-methyl-1-piperazinyl)-4-oxo-3-quinolinecarboxylic acid]	0.1 (≈ 0.232 µM)	0.1 (≈ 0.232 µM)	0.1 (≈ 0.232 µM)	–	–	0.05 (≈ 0.116 µM)	1.6 (≈ 3.71 µM)	0.025 (≈ 0.0579 µM)	0.4 (≈ 0.927 µM)	–	0.2 (≈ 0.464 µM)	–	0.4 (≈ 0.927 µM)	0.8 (≈ 1.85 µM)	–
Cc1c(F)c(N2CCC(N)C2)cc2c1c(=O)c(C(=O)O)cn2-c1ccc(F)cc1F (centres unmarked) [Ex. 17c, 7-(3-Amino-1-pyrrolidinyl)-6-fluoro-1-(2,4-difluorophenyl)-1,4-dihydro-5-methyl-4-oxo-3-quinolinecarboxylic acid]	0.05 (≈ 0.12 µM)	0.05 (≈ 0.12 µM)	0.05 (≈ 0.12 µM)	0.05 (≈ 0.12 µM)	–	0.025 (≈ 0.0599 µM)	0.8 (≈ 1.92 µM)	0.013 (≈ 0.0311 µM)	0.1 (≈ 0.24 µM)	0.1 (≈ 0.24 µM)	–	–	–	0.2 (≈ 0.479 µM)	–
Cc1c(F)c(N2CCC(N)C2)c(F)c2c1c(=O)c(C(=O)O)cn2C1CC1 (centres unmarked) [Ex. 2, 7-(3-Amino-1-pyrrolidinyl)-1-cyclopropyl-6,8-difluoro-1,4-dihydro-5-methyl-4-oxo-3-quinolinecarboxylic acid]	0.006 (≈ 0.0165 µM)	0.013 (≈ 0.0358 µM)	0.013 (≈ 0.0358 µM)	–	0.025 (≈ 0.0688 µM)	0.003 (≈ 0.00826 µM)	0.4 (≈ 1.1 µM)	0.003 (≈ 0.00826 µM)	0.025 (≈ 0.0688 µM)	–	0.006 (≈ 0.0165 µM)	–	0.013 (≈ 0.0358 µM)	–	–
Cc1c(F)c(N2CCNCC2)c(F)c2c1c(=O)c(C(=O)O)cn2-c1ccc(F)cc1F [Ex. 14, 6,8-Difluoro-1-(2,4-difluorophenyl)-1,4-dihydro-5-methyl-4-oxo-7-(1-piperazinyl)-3-quinolinecarboxylic acid]	0.05 (≈ 0.115 µM)	0.4 (≈ 0.919 µM)	0.2 (≈ 0.459 µM)	–	–	0.4 (≈ 0.919 µM)	0.8 (≈ 1.84 µM)	0.05 (≈ 0.115 µM)	0.4 (≈ 0.919 µM)	–	0.1 (≈ 0.23 µM)	–	0.4 (≈ 0.919 µM)	0.4 (≈ 0.919 µM)	–
Cc1c(F)c(N2CC(C)NC(C)C2)c(F)c2c1c(=O)c(C(=O)O)cn2-c1ccc(F)cc1F (centres unmarked) [Ex. 14a, 6,8-Difluoro-1-(2,4-difluorophenyl)-1,4-dihydro-5-methyl-7-(3,5-dimethyl-1-piperazinyl)-4-oxo-3-quinolinecarboxylic acid]	0.4 (≈ 0.863 µM)	1.6 (≈ 3.45 µM)	0.4 (≈ 0.863 µM)	–	–	0.8 (≈ 1.73 µM)	3.1 (≈ 6.69 µM)	–	1.6 (≈ 3.45 µM)	–	0.4 (≈ 0.863 µM)	–	1.6 (≈ 3.45 µM)	3.1 (≈ 6.69 µM)	0.2 (≈ 0.432 µM)
Cc1c(F)c(N2CCC(N)C2)c(Cl)c2c1c(=O)c(C(=O)O)cn2C1CC1 (centres unmarked) [Ex. 11, 7-(3-Amino-1-pyrrolidinyl)-8-chloro-1-cyclopropyl-6-fluoro-1,4-dihydro-5-methyl-4-oxo-3-quinolinecarboxylic acid]	0.013 (≈ 0.0342 µM)	0.05 (≈ 0.132 µM)	0.025 (≈ 0.0658 µM)	0.05 (≈ 0.132 µM)	–	0.025 (≈ 0.0658 µM)	0.2 (≈ 0.527 µM)	0.013 (≈ 0.0342 µM)	0.05 (≈ 0.132 µM)	–	–	–	0.05 (≈ 0.132 µM)	0.05 (≈ 0.132 µM)	–

From patent US5585491A, “Antibacterial agents” (Otsuka Pharmaceutical Co., Ltd., priority 1995, dated 1996)
